According to patent US20250213589A1, “METHODS AND COMPOSITIONS FOR TE[…]” (priority 2023, published 2025):

Legend:
[1] = FIG. 1: testosterone concentration in a patient at various time points after 200 mg of testosterone; settings: after administration; FIG. 1, 200 mg of testosterone
Method: FIG. 1 is a phase diagram of the testosterone concentration in a patient at various time points after being administered 200 mg of testosterone.
Hormone levels were measured after co-administration of 200 mg of testosterone and 6.25 mg of enclomiphene for 30 days. Testosterone concentration was measured at +4 hours and +12 hours after administration. […] Testosterone concentration was measured at +4 hours after administration to capture the peak testosterone concentration (cMax) and +12 hours after administration to capture the trough testosterone concentration (cMin) to determine if endogenous testosterone suppression is prevented with the enclomiphene.

[2] = tested on: endogenous testosterone, LH, and FSH production; test: Example 3: hormone levels after administration of enclomiphene (pre-TRT); assay type: in vivo, human; settings: after 6.25 mg of enclomiphene; n=1
Method: This example investigated the effects of administering a SERM (enclomiphene) on endogenous testosterone, LH, and FSH production.
Hormone levels were measured after administration of 6.25 mg of enclomiphene (see Table 3, n=1).

C[C@]12CC[C@H]3[C@@H](CCC4=CC(=O)CC[C@@]43C)[C@@H]1CC[C@@H]2O [Testosterone, testosterone]
time of testosterone peak [1]: 3 to 5 h | time until testosterone is out of the system [1]: ≤ 12 h

CCN(CC)CCOc1ccc(/C(=C(/Cl)c2ccccc2)c2ccccc2)cc1 [enclomiphene]
Calculated free testosterone levels [2]: 197 pg/mL | Sex Hormone Binding Globulin [2]: 20 nmol/L | Testosterone, Bioavailable [2]: 322.9 ng/dL | Testosterone, Free [2]: 153.7 pg/mL | Testosterone, Total, MS [2]: 724 ng/dL | increase of calculated free testosterone from baseline (114 pg/mL) [2]: 73%
